Test [1] has as its system methicillin-sensitive Staphylococcus aureus. Put plainly: MIC by broth micro-dilution (CLSI), methicillin-sensitive S. aureus. Type of test: cell-based. As to conditions: Staphylococcus aureus, ATCC 29213 / MSSA, MSSA S. aureus ATCC29213; read-out: MIC.
Test [2] concerns carbapenem sensitive Pseudomonas aeruginosa. Put plainly: MIC by broth micro-dilution (CLSI), carbapenem sensitive P. aeruginosa. As to conditions: Pseudomonas aeruginosa, ATCC27853, Meropenem susceptible P. aeruginosa ATCC27853; read-out: MIC. Type of test: cell-based.
Test [3] deals with extended spectrum β lactamase (ESBL) SHV18 producing Klebsiella pneumoniae. Put plainly: MIC by broth micro-dilution (CLSI), ESBL SHV18 producing K. pneumoniae. Type of test: cell-based. The following applies: Klebsiella pneumoniae, ATCC700603, 22 h, ESBL +ve (SHV-18) K. pneumoniae ATCC700603; read-out: MIC. Background: Broth dilution looks for growth in wells or tubes with falling amounts of substance.

Test [4] has as its system carbapenemase producing K. pneumoniae. Put plainly: MIC by broth micro-dilution (CLSI), carbapenemase producing K. pneumoniae. The class given is cell-based, Klebsiella pneumoniae. As to conditions: Klebsiella pneumoniae, ATCCBAA1705, KPC-2 K. pneumoniae ATCC BAA-1705; read-out: MIC.
The test system of test [5] is carbapenem sensitive Escherichia coli. Put plainly: MIC by broth micro-dilution (CLSI), carbapenem sensitive E. coli. As to conditions: Escherichia coli, ATCC25922, ESBL −ve E. coli ATCC25922; read-out: MIC. The class given is cell-based.

In brackets after ≈: the same amount, converted by molar mass. Bounds are passed on as bounds.

We go through 10 compounds from US11180504B2 (ORCHID PHARMA LTD., priority 2016, dated 2021).

As a reminder, the MIC is the lowest concentration that inhibits growth of the organism.

Turning to `C[C@@H](NC(=O)[C@H]1CCCN1)[C@H]1C(=O)N2C(C(=O)O)=C(S[C@@H]3CN[C@H](CNS(N)(=O)=O)C3)[C@H](C)[C@H]12` [Example 226], the MIC was determined as 32 µg/mL (≈ 61.9 µM) in test [1]; 64 µg/mL (≈ 124 µM) in test [2]; 32 µg/mL (≈ 61.9 µM) in test [3]; 8 µg/mL (≈ 15.5 µM) in test [4]; 1 µg/mL (≈ 1.94 µM) in test [5].
As to `C[C@@H](NC(=O)[C@H]1CCCN1)[C@H]1C(=O)N2C(C(=O)O)=C(S[C@@H]3CN[C@H](C(=O)N(C)C)C3)[C@H](C)[C@H]12` [Example 227], the MIC in test [1] stood at 64 µg/mL (≈ 133 µM); in test [2], 32 µg/mL (≈ 66.7 µM); in test [3], 8 µg/mL (≈ 16.7 µM); in test [4] it was 4 µg/mL (≈ 8.34 µM); in test [5], 2 µg/mL (≈ 4.17 µM).
With `C[C@@H](NC(=O)[C@@H]1CCCN1)[C@H]1C(=O)N2C(C(=O)O)=C(S[C@@H]3CN[C@H](C(=O)N(C)C)C3)[C@H](C)[C@H]12` [Example 228], the MIC in test [1] is 64 µg/mL (≈ 133 µM); in test [2], 64 µg/mL (≈ 133 µM); in test [3], 4 µg/mL (≈ 8.34 µM); in test [4], 8 µg/mL (≈ 16.7 µM); in test [5] it was 1 µg/mL (≈ 2.09 µM).
With `C[C@@H](NC(=O)CN(C)C=N)[C@H]1C(=O)N2C(C(=O)O)=C(S[C@@H]3CN[C@H](C(=O)N4CC[C@@H](N)C4)C3)[C@H](C)[C@H]12` [Example 229], the MIC in test [1] amounted to 128 µg/mL (≈ 245 µM); in test [2] it was 32 µg/mL (≈ 61.3 µM); in test [3], 64 µg/mL (≈ 123 µM); in test [4], 64 µg/mL (≈ 123 µM); in test [5], 16 µg/mL (≈ 30.7 µM).
Take `C[C@@H](NC(=O)CN(C)C(=N)N)[C@H]1C(=O)N2C(C(=O)O)=C(S[C@@H]3CN[C@H](C(=O)N4CC[C@@H](N)C4)C3)[C@H](C)[C@H]12` [Example 230]: the MIC in test [1] was found to be 32 µg/mL (≈ 59.6 µM); in test [2], 8 µg/mL (≈ 14.9 µM); in test [3], 8 µg/mL (≈ 14.9 µM); in test [4], 4 µg/mL (≈ 7.45 µM); in test [5], 1 µg/mL (≈ 1.86 µM).
In the case of `C[C@@H](NC(=O)CN(C)C(=N)N)[C@H]1C(=O)N2C(C(=O)O)=C(S[C@@H]3CN[C@H](C(=O)N(C)C)C3)[C@H](C)[C@H]12` [Example 231], the minimum inhibitory concentration (MIC) in test [1] turned out to be 32 µg/mL (≈ 64.6 µM); in test [2], 16 µg/mL (≈ 32.3 µM); in test [3], 4 µg/mL (≈ 8.07 µM); in test [4] it was 2 µg/mL (≈ 4.04 µM); in test [5], 1 µg/mL (≈ 2.02 µM).
As for `COCc1cn([C@H](C)[C@H]2C(=O)N3C(C(=O)O)=C(S[C@@H]4CN[C@H](C(=O)N5CC[C@@H](N)C5)C4)[C@H](C)[C@H]23)nn1` [Example 232], the MIC is 2 µg/mL (≈ 3.85 µM) in test [1]; above 128 µg/mL in test [2]; 8 µg/mL (≈ 15.4 µM) in test [3]; 8 µg/mL (≈ 15.4 µM) in test [4]; 2 µg/mL (≈ 3.85 µM) in test [5].
Take `COCc1cn([C@H](C)[C@H]2C(=O)N3C(C(=O)O)=C(S[C@@H]4CN[C@H](C(=O)N(C)C)C4)[C@H](C)[C@H]23)nn1` [Example 233]: the MIC in test [1] was 4 µg/mL (≈ 8.36 µM); in test [2], above 128 µg/mL; in test [3], 4 µg/mL (≈ 8.36 µM); in test [4], 4 µg/mL (≈ 8.36 µM); in test [5] it was 1 µg/mL (≈ 2.09 µM).
As to `COCc1cn([C@H](C)[C@H]2C(=O)N3C(C(=O)O)=C(S[C@@H]4CN[C@H](CNS(N)(=O)=O)C4)[C@H](C)[C@H]23)nn1` [Example 234], the MIC in test [1] is 0.5 µg/mL (≈ 0.97 µM); in test [2], above 128 µg/mL; in test [3], 4 µg/mL (≈ 7.76 µM); in test [4] it was 4 µg/mL (≈ 7.76 µM); in test [5], 0.5 µg/mL (≈ 0.97 µM).
Turning to `CNCC(=O)N[C@H](C)[C@H]1C(=O)N2C(C(=O)O)=C(S[C@@H]3CN[C@H](C(=O)N4CCN(C(=N)N)CC4)C3)[C@H](C)[C@H]12` [Example 361, (4R,5S,6R)-3-((3S,5S)-5-(4-carbamimidoylpiperazine-1-carbonyl)pyrrolidin-3-ylthio)-4-methyl-6-((R)-1-(2-(methylamino)acetamido)ethyl)-7-oxo-1-azabicyclo[3.2.0]hept-2-ene-2-carboxylic acid], the MIC in test [1] amounted to 8 µg/mL (≈ 14.9 µM); in test [2] it was 2 µg/mL (≈ 3.73 µM); in test [3] it was 4 µg/mL (≈ 7.45 µM); in test [4], 2 µg/mL (≈ 3.73 µM); in test [5], 1 µg/mL (≈ 1.86 µM).
